Molecular target: hGPR40 (Homo sapiens, UniProt O14842)
Experiment: FDSS-based intracellular calcium assay
Assay type: cell-based
Design: 3xFLAG; expressed in transfected cells
Details: intracellular Ca2+ response, cells expressing GPR40
Protocol: FDSS-Based Intracellular Calcium Assay
Compounds are dissolved in DMSO and diluted to desired concentrations with assay buffer and added to the cells as 3× solution (20 μL per well). Run fluorescence/luminescence reader FDSS (Hamamatsu) to read intracellular Ca^2+ response.

hGPR40, sequence (O14842 whole entry): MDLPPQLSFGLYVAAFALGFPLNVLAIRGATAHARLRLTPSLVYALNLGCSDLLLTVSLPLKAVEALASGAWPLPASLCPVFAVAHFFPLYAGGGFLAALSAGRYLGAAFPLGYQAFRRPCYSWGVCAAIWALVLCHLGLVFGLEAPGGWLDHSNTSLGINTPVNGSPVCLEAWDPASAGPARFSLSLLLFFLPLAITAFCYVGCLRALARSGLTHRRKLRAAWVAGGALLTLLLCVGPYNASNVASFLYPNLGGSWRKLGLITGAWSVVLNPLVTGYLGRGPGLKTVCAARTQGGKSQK

Row | EC50 [nM] | Structure (SMILES)
1 | 382 | C[C@@H]1C(C(F)(F)F)=NN(c2ccc(OC3CCN(c4ccc(F)cc4Cl)CC3)cc2)[C@H]1CC(=O)O [Example 62, 2-((4S,5S)-1-(4-((1-(2-Chloro-4-fluorophenyl)piperidin-4-yl)oxy)phenyl)-4-methyl-3-(trifluoromethyl)-4,5-dihydro-1H-pyrazol-5-yl)acetic acid]
2 | 374 | CC(C)Oc1ccc(F)c(N2CCC(Oc3ccc(N4N=C(C(F)(F)F)[C@@H](C)[C@@H]4CC(=O)O)cc3)CC2)c1 [Example 9, 2-((4S,5S)-1-(4-((1-(2-Fluoro-5-isopropoxyphenyl)piperidin-4-yl)oxy)phenyl)-4-methyl-3-(trifluoromethyl)-4,5-dihydro-1H-pyrazol-5-yl)acetic acid]
3 | 600 | CC(C)c1ccc(F)c(N2CCC(Oc3ccc(N4N=C(C(F)(F)F)[C@@H](C)[C@@H]4CC(=O)O)cc3)CC2)c1 [Example 66, 2-((4S,5S)-1-(4-((1-(2-Fluoro-5-isopropylphenyl)piperidin-4-yl)oxy)phenyl)-4-methyl-3-(trifluoromethyl)-4,5-dihydro-1H-pyrazol-5-yl)acetic acid]
4 | 2120 | CC(C)c1cccc(N2CCC(Oc3ccc(N4N=C(C(F)(F)F)[C@@H](C)[C@@H]4CC(=O)O)cc3)CC2)c1 [Example 73, 2-((4S,5S)-1-(4-((1-(3-Isopropylphenyl)piperidin-4-yl)oxy)phenyl)-4-methyl-3-(trifluoromethyl)-4,5-dihydro-1H-pyrazol-5-yl)acetic acid]
5 | 1340 | Cc1cccc(C)c1N1CCC(Oc2ccc(N3N=C(C(F)(F)F)[C@@H](C)[C@@H]3CC(=O)O)cc2)CC1 [Example 44, 2-((4S,5S)-1-(4-((1-(2,6-Dimethylphenyl)piperidin-4-yl)oxy)phenyl)-4-methyl-3-(trifluoromethyl)-4,5-dihydro-1H-pyrazol-5-yl)acetic acid]
6 | 498 | Cc1ccccc1N1CCC(Oc2ccc(N3N=C(C(F)(F)F)[C@@H](C)[C@@H]3CC(=O)O)cc2)CC1 [Example 39, 2-((4S,5S)-4-Methyl-1-(4-((1-(o-tolyl)piperidin-4-yl)oxy)phenyl)-3-(trifluoromethyl)-4,5-dihydro-1H-pyrazol-5-yl)acetic acid]

Second part, the molecule before the results:

Row | Structure (SMILES) | EC50 [nM]
7 | COc1cc(N2CC[C@@H](Oc3ccc(N4N=C(C(F)(F)F)[C@@H](C)[C@@H]4CC(=O)O)cc3Br)[C@H](C)C2)c(Cl)cn1 [Example A4, 2-((4S,5S)-1-(3-Bromo-4-(((3R,4R)-1-(5-chloro-2-methoxypyridin-4-yl)-3-methylpiperidin-4-yl)oxy)phenyl)-4-methyl-3-(trifluoromethyl)-4,5-dihydro-1H-pyrazol-5-yl)acetic acid] | 45
8 | CCC1C(C(F)(F)F)=NN(c2ccc(OC3CCN(c4cc(OC)ncc4Cl)CC3C)cc2)C1CC(=O)O (single isomer, unassigned) [Example 86, Isomer 2, 2-(1-(4-((1-(5-Chloro-2-methoxypyridin-4-yl)-3-methylpiperidin-4-yl)oxy)phenyl)-4-ethyl-3-(trifluoromethyl)-4,5-dihydro-1H-pyrazol-5-yl)acetic acid] | 599
9 | COc1cc(N2CCC(Oc3ccc(N4N=C(C(F)(F)F)[C@@H](C)[C@@H]4CC(=O)O)cc3)C(F)C2)c(Cl)cn1 (single isomer, unassigned) [Example A1, Isomer 1] | 184
10 | CCOc1ccc(F)c(N2CCC(Oc3ccc(N4N=C(c5ccc(C#N)cc5F)[C@@H](C)[C@@H]4CC(=O)O)cc3)CC2)c1 [Example 94, 2-((4S,5S)-3-(4-Cyano-2-fluorophenyl)-1-(4-((1-(5-ethoxy-2-fluorophenyl)piperidin-4-yl)oxy)phenyl)-4-methyl-4,5-dihydro-1H-pyrazol-5-yl)acetic acid] | 59
11 | COc1cc(F)cc(N2CCC(Oc3ccc(N4N=C(C(F)(F)F)[C@@H](C)[C@@H]4CC(=O)O)cc3)CC2)n1 [Example 80, 2-((4S,5S)-1-(4-((1-(4-Fluoro-6-methoxypyridin-2-yl)piperidin-4-yl)oxy)phenyl)-4-methyl-3-(trifluoromethyl)-4,5-dihydro-1H-pyrazol-5-yl)acetic acid] | 2560
